Entries after “also recorded” stand apart in the source; their conditions may differ.
Legend:
[1] = tested on: HNSCC-1A cells; assay: Confocal immunofluorescence, colocalization of ceramide and Tom20; format: cell-based, human; conditions: 1 μM or 4 μM, 1.5 hours, compared to vehicle and LCL-461
[2] = tested on: HNSCC-1A cells; assay: Cell death / MTT cell viability assay; format: cell-based, human
[3] = tested on: HNSCC-1A cells; assay: ACO2 levels by Western blotting (lethal mitophagy); format: cell-based, human; conditions: 4 μM, 48 hours
Procedure: FIG. 6 is a graph showing levels of aconitase 2 (ACO2) (reported as normalized cumulative pixel intensity) in head and neck squamous cell carcinoma (HNSCC-1A) cells incubated with 4 micromolar (μM) concentrations of a pyridinium-substituted ceramide-based compound (LCL-461), the selenite conjugated salt of a pyridinium-substituted ceramide-based compound (LCL-768), or vehicle for 48 hours. ACO2 levels were measured via Western blotting. Image-processing software was used to quantify the band intensity from the blots.

[4] = tested on: HNSCC-1A cells; assay: ATP levels (lethal mitophagy); format: cell-based, human; conditions: 4 μM, 48 hours
Procedure: FIG. 7 is a graph showing adenosine triphosphate (ATP) activity in head and neck squamous cell carcinoma (HNSCC-1A) cells incubated with 4 micromolar (μM) concentrations of a pyridinium-substituted ceramide-based compound (LCL-461), the selenite conjugated salt of a pyridinium-substituted ceramide-based compound (LCL-768), or vehicle for 48 hours. ATP levels in the samples were measured, and all samples were normalized to a standard curve and then to vehicle activity.

[5] = tested on: HNSCC-1A cells; assay: LC3B-II levels by Western blotting (autophagy); format: cell-based, human; conditions: 4 μM, 1.5 hours
Procedure: LC3B-II levels were measured via Western blotting. Image-processing software was used to quantify the band intensity from the blots.
(§1) Cellular lysates in radioimmunoprecipitation assay (RIPA) buffer containing a protease inhibitor cocktail (Sigma-Aldrich, St. Louis, Missouri, United States of America) were normalized by the total protein level and analyzed by sodium dodecyl sulfate-polyacrylamide gel electrophoresis (SDS-PAGE) and immunoblotting with corresponding antibodies. For immunoprecipitation, precleared cytosolic fractions were incubated overnight with 2 μg of corresponding antibodies at 4° C., followed by 1-hour incubation with Protein A/G Agarose (Santa Cruz Biotechnology, Inc., Dallas, Texas, United States of America) (50 μl of a 50% slurry). Resin was washed three to five times, and pulled-down proteins were analyzed by SDS-PAGE and Western blotting with corresponding antibodies.

[6] = tested on: non-cancerous adjacent tissue organoids; assay: Ex vivo non-cancerous adjacent tissue organoids, mitophagy; format: cell-based, human; conditions: ex vivo treatment, same patient
Description: (§2) To validate the clinical relevance of the activation of mitophagy, 2D organoids^4 were developed using tumor tissues obtained from a patient with HNSCC. […] The co-localization of GM130/Calnexin was used as a control.

[7] = Maximum tolerated dose in SCID mice; format: in vivo
[8] = tested on: UM-SCC-1A cells; assay: CYTO-ID mitophagy detection in UM-SCC-1A cells with shSCR or shLC3; format: cell-based, human
[9] = tested on: normal murine astrocytes; assay: MTT cell viability, normal murine astrocytes; format: cell-based; conditions: 5 μM, 24 hour treatment
[10] = tested on: human glioblastoma cells; conditions: 5 μM, 24 hour treatment, compared to LCL-461 or sodium selenite
[11] = tested on: UM-SCC-1A cells; assay: Subcellular accumulation by differential centrifugation and mass spectrometry; format: cell-based, human; conditions: 10 μM, 6-24 hours
Procedure: FIG. 13D is a graph showing the subcellular accumulation of LCL-768 (10 micromolar (μM)) after 0, 3, 6, 9, or 24 hours in the nucleus, mitochondria and cytoplasm of human head and neck squamous cell carcinoma (HNSCC) cells (UM-SCC-1A cells) as measured by mass spectrometry/lipidomics after differential centrifugation.
The effects of LCL-768 on mitophagy induction in UM-SCC-IA cells transfected stably with the shRNA against LC3B (shLC3) was studied and compared to controls (UM-SCC-1A cells transfected with a control shRNA, shSCR). […] The subcellular accumulation of LCL-768 was studied in the same cells. Nucleus, mitochondria and cytoplasm in LCL-768-treated cells were isolated by differential centrifugation and LCL-768 accumulation was measured by mass spectrometry. […] Thus, these studies further support mitochondrial accumulation and efficacy of LCL-768 in inducing mitophagy in UM-SCC-1A cells.

[12] = tested on: HNSCC organoids; conditions: ex vivo treatment, MALDI-Imaging
Description: as §2

[13] = tested on: normal human astrocyte (HA) cells; assay: MTT cell viability, normal human astrocytes; format: cell-based; conditions: 5 μM, 24 hour treatment
[14] = tested on: non-cancerous human astrocytes (HA); conditions: 5 μM
Procedure: (§3) FIG. 10 is a composite gel image of Western blot analysis of extracts from non-cancerous human astrocytes (HA), 43RG32 and U118 cells treated with 0 micromolar (0 μM) or 5 μM LCL-768. The effects of LCL-768 on LC3-II activation, aconitase 2 (ACO2) degradation, and dynamin-related GTPase (Drp1) dephosphorylation at […] were measured as markers of mitophagy (n=3).
as §1

[15] = tested on: murine glioblastoma (GL261) cells; conditions: 5 μM, 24 hour treatment
[16] = tested on: UM-SCC-1A-xenografts
Description: Tumor volume (cubic millimeters (mm^3)) is provided for both […] mice and mice treated with vehicle as a control.

[17] = tested on: 43RG32 cells; assay: Western blotting of mitophagy markers, 43RG32 cells; format: cell-based, human
Procedure: as §3
(§4) 43RG32 and U118 glioblastoma cells were treated with (+) or without (−) 5 micromolar (5 μM) LCL-768 and with (+) or without (−) the Drp1 inhibitor Mdivi-1. Actin was used as a loading control (n=3).
as §1

[18] = tested on: U118 cells; assay: Western blotting of mitophagy markers, U118 cells; format: cell-based, human
Procedure: as §3, §4, §1

[19] = tested on: HNSCC-IA cells; assay: Confocal immunofluorescence, colocalization of CerS1 and mitochondrial protein Tom20; format: cell-based, human; conditions: 1 μM, 3 hours
Procedure: FIG. 3A is a series of confocal microscopy images of cells treated with 1 micromolar (1 μM) concentrations of a pyridinium-substituted ceramide-based selenium conjugated compound (LCL-768) or vehicle for 3 hours and labeled for Ceramide Synthase 1 (CerS1; top row), mitochondria (middle row) or both (bottom row).
UM-SCC-22A (squamous carcinoma) cells (50,000 per well) were plated on glass coverslips in a six-well plate for 18 hours. Cells were fixed and permeabilized using 4% paraformaldehyde (20 min) and 0.1% Triton X-100 in 1× phosphate-buffered saline (PBS) (pH 7.4) for 10 min. The cells were then blocked with 1% bovine serum albumin (BSA)/PBS (pH 7.4) for 1 hour. […] Immunofluorescence was performed using a Leica TCS SP2 AOBS confocal microscope (Leica Microsystems, Wetzler, Germany), an Olympus FV10i microscope (Olympus Corporation, Tokyo, Japan) with 543- and 488-nm channels for visualizing green and red fluorescence, or a Zeiss LSM 880 NLO Quasar confocal/multiphoton microscope with a Fast Airyscan super-resolution detector (Carl Zeiss, AG, Oberkochen, Germany). […] At least three random fields were selected for image quantification.

[20] = tested on: HNSCC organoids; assay: Ex vivo 2D HNSCC patient organoids, CerS1/Tom20 co-localization (mitophagy); format: cell-based, human; conditions: ex vivo treatment
Description: FIG. 14A is a series of microscopy images showing the H&E staining (top row) and fluorescence imaging of the co-localization of translocase of outer mitochondrial membrane 20 (Tom20) and CerS1 (as a measure of mitophagy, middle row) in two-dimensional (2D) organoids developed from a patient with head and neck squamous cell carcinoma (HNSCC) in response to treatment with vehicle, LCL-768, sodium selenite (SoSe), rapamycin, or cisplatin ex vivo. Co-localization of cis-Golgi matrix protein 130 kDa (GM130) and Calnexin was used as a negative control (bottom row).
FIG. 14B is a graph showing the quantification of colocalization of Tom20 and CerS1 from the treated two-dimensional (2D) organoids described for FIG. 14A.
as §2

[21] = tested on: HNSCC-1A cells; conditions: 1 and 2.5 μM, live HNSCC-1A cells
[22] = tested on: orthotopic GB U118-xenograft-derived tumor; assay: Orthotopic GB U118 xenograft in brains of SCID mice; format: in vivo; conditions: 1 mg/kg/day for 14 days, female SCID mice

CCCCCCCCCCCCCCCCCC(=O)N[C@@H](CO)[C@H](O)/C=C/CCCCCCCCC[n+]1ccccc1.[Br-] [LCL-461, D-erythro-2-N-octadecanoyl-14-(1′-pyridinium)-sphingosine bromide, reference compound]
colocalization of ceramide and Tom20 (selenite-stress response) [1]: does not cause a strong selenite-stress response | IC50 ([2]; Homo sapiens, 24 hours): ~10 µM | IC50 ([2]; Homo sapiens, 48 hours): ~4 µM | levels of ACO2 compared to vehicle (lethal mitophagy) [3]: decreased levels | levels of ATP compared to vehicle (lethal mitophagy) [4]: decreased levels | LC3B-II levels (autophagy) [5]: increased LC3B-II levels

CCCCCCCCCCCCCCCCCC(=O)N[C@@H](CO)[C@H](O)/C=C/CCCCCCCCC[n+]1ccccc1.CCCCCCCCCCCCCCCCCC(=O)N[C@@H](CO)[C@H](O)/C=C/CCCCCCCCC[n+]1ccccc1.O=[Se]([O-])[O-] [LCL-768, D-erythro-14-(1′-pyridinium)-N-octadecanoyl-sphingosine selenite]
mitophagy induction in non-cancerous adjacent tissue organoids [6]: did not affect mitophagy induction | maximum tolerated dose (MTD) [7]: 10 mg/kg | mitophagy induction in shSCR-controls ([8]; 10 μM, 6, 9 and 24 hours, UM-SCC-1A shSCR): highly induced mitophagy | mitophagy induction after knockdown of LC3 ([8]; 10 μM, UM-SCC-1A shLC3): almost completely prevented | colocalization of ceramide and Tom20 (selenite-stress response) [1]: increased colocalization | cell death in mouse normal astrocytes [9]: not induced | autophagic cell death in human glioblastoma cells [10]: induced autophagic cell death | subcellular accumulation (nucleus, mitochondria, cytoplasm) [11]: largely accumulated in the mitochondria | IC50 ([2]; 24 hours): ~10 µM | IC50 ([2]; 48 hours): ~4 µM | endogenous C24-ceramide compared to controls [12]: decreased | cell death in human normal astrocytes [13]: not induced | levels of ACO2 compared to vehicle (lethal mitophagy) [3]: decreased levels | ACO2 degradation (mitophagy) ([14]; HA cells): not | LC-3B-II activation (autophagy marker) ([14]; HA cells): not | mitophagy (LC3-II activation, ACO2 degradation, Drp1 dephosphorylation as markers) ([14]; as stated in legend of FIG. 10): induces mitophagy | autophagic cell death in mouse glioblastoma cells [15]: induced autophagic cell death in mouse glioblastoma cells at a higher level than either LCL-461 or sodium selenite | tumor growth compared to vehicle-treated mice ([16]; 10 mg/kg intraperitoneal every other day, 21 days, SCID mice): inhibited tumor growth significantly | mitophagy in xenograft-derived tumors (ACO2, P-S637 Drp1, S-NO-Drp1) ([16]; day 21, Western blotting): induction of mitophagy | accumulation in tumor vs adjacent non-tumorigenic tissues ([16]; day 21, mass spectrometry): higher tumor accumulation | ACO2 degradation (mitophagy) ([17]; 5 μM): induced | LC-3B-II activation (autophagy marker) ([17]; 5 μM): induced | levels of ATP compared to vehicle (lethal mitophagy) [4]: decreased levels | LC3B-II levels (autophagy) [5]: increased LC3B-II levels | ACO2 degradation (mitophagy) ([18]; 5 μM): induced | LC-3B-II activation (autophagy marker) ([18]; 5 μM): induced | colocalization of CerS1 and mitochondrial protein Tom20 [19]: significant increase | mitophagy (co-localization of CerS1 and Tom20) compared to vehicle-treated controls [20]: induced mitophagy | time of exposure at which mitophagy is occurring [21]: ≤ 90 min | tumor growth in the brain (MRI) compared to controls ([22]; osmotic pump into brain tumor): remarkably reduced tumor growth | increase of survival post-treatment ([22]; osmotic pump, vs vehicle): about 10 days

COc1cc(-n2c(=S)[nH]c3ccccc3c2=O)c(Cl)cc1Cl [Mdivi-1, reference compound]
effect of Drp1 inhibition on LCL-768-mediated ACO2 degradation / mitophagy ([17]; with 5 μM LCL-768): almost completely prevented; also recorded: prevents | effect of Drp1 inhibition on LCL-768-mediated ACO2 degradation / mitophagy ([18]; with 5 μM LCL-768): almost completely prevented; also recorded: prevents

N.N.[Cl][Pt][Cl] [cisplatin, reference compound]
mitophagy induction in non-cancerous adjacent tissue organoids [6]: did not affect mitophagy induction | mitophagy (co-localization of CerS1 and Tom20) compared to vehicle-treated controls [20]: induced mitophagy

O=[Se](O)O [sodium selenite, reference compound]
cell death in mouse normal astrocytes [9]: not induced | cell death in human normal astrocytes [13]: not induced

Reference: patent publication US12390490B2, “Sphingolipid-based selenium compounds, methods for their preparation, and pharmaceutical uses thereof, including as antitumor agents” (MUSC FOUNDATION FOR RESEARCH DEVELOPMENT, priority 2019, dated 2025)
